The source of these data is patent publication US20050250726A1, “Immunostimulatory nucleic acid for treatment of non-allergic inflammatory diseases” (University of Iowa Research Foundation, priority 2001, published 2005).

For one series, the system named is COX-2 mRNA. Briefly: RNase protection assay for COX-2 mRNA in RAW 264.7 macrophages. In kind it is cell-based, murine. The note with it: ODN 3 μg/ml; for increase in COX-2 mRNA: 0-24 h. Here is the method:
RNase protection assay. A murine COX-2 cDNA fragment (nucleotides 205-505; GenBank accession no. M88242) was synthesized by RT-PCR using mouse brain RNA as a template and cloned into pGEM-4. Fragments of the RPL32-4A gene were also cloned into pGEM-4. Dudov K P et al. (1984) Cell 37:457-68. L32 served as an internal loading control. RNase protection assay (RPA) for the detection of COX-2 was performed as previously described. Stadler A et al. (1998) In: Neurodegeneration Methods and Protocols, Harry J and Tilson H A, eds., Humana Press, Totowa, N.J., p. 53. Briefly, for the synthesis of a ^32P-radiolabeled anti-sense RNA probe, equimolar mixtures of the linearized COX-2 and L32 templates were used. Hybridization reactions were performed overnight at 56° C. Following RNase digestion, the RNA duplexes were isolated by electrophoresis in a standard 7.5% acrylamide/12 M urea/0.5% TBE sequencing gel. Dried gels were placed on BMR filmhand were exposed at −70° C.
Films and photographs of RPA or Western blots were scanned in at 6000 DPI using an Epson Expression 1600 scanner. Densitometric analysis was performed using Vtrace (developed at the University of Iowa Image Analysis Facility) operating on a SGI O2 Workstation. Average and integrated OD measurements were made on user-selected regions. A Kodak photographic step tablet was used to calibrate optical density.
Immunostimulatory ODN induce COX-2 mRNA. RAW 264.7 macrophages were incubated with media or ODN (3 μg/ml) for varying time periods (0, 2, 4, 6 and 24 h) and RNA isolated for COX-2 expression using RPA.

The subject of the next series is COX-2 protein. Briefly: Western blotting of COX-2 protein in RAW 264.7 cells. In kind it is cell-based, murine. The protocol:
Western blotting. Protein was isolated from cultured cells by resuspending in lysis buffer [50 mM Tris (hydroxymethyl) aminomethane, pH 7.5, 150 mM NaCl, 100 μg/ml PMSF, 1 μg/ml aprotinin, 1 μg/ml leupeptin, 1 mM diethyldithiocarbamic acid, 1% NP-40 and 1% sodium deoxycholate]. Cells were lysed by sonication (20 s, 4° C.). Debris was eliminated by centrifugation (15 min, 1000 g). Protein concentration was measured using a commercial reagent based on BCA staining (Pierce, Rockford, Ill.), using BSA as an internal standard. Equal amounts of cellular protein were loaded onto a 10% polyacrylamide gel and separated by electrophoresis (200 V for 45 min). Proteins were then transferred to nitrocellulose (100 V for 1 h) and the membrane was blocked with 5% non-fat dry milk. The nitrocellulose was then incubated with a rabbit polyclonal primary antibody (anti-COX-2, 1:1000, Cayman; anti-COX-1, 1:1000, Santa Cruz) overnight at 4° C. Antibody labeling was detected using enhanced chemiluminescence (ECL; Amersham) as per the manufacturer's instructions. Specificity of the anti-cyclooxygenase antibody was confirmed with the use of ram seminal vesicle PGHS-1 (COX-1, Oxford Biomedical Research, Oxford, Mich.) and sheep placenta PGHS-2 (COX-2, Cayman).
Films and photographs of RPA or Western blots were scanned in at 6000 DPI using an Epson Expression 1600 scanner. […]
A general note: In western blotting, separated proteins are transferred to a membrane and probed.

The subject of series [1] is BALB/c mouse spleen cells. Briefly: IFN-γ secretion from CpG DNA-stimulated spleen cells (ELISA). The class given is cell-based. The conditions noted are these: for IFN-γ: BALB/c spleen cells preincubated 30 min with SC-58236 0.125 μM, PGE2 0.1 μM, 2B5 or control antibody 6.7 μg/mL, then CpG ODN 1826 0.3 μg/mL for 24 h, supernatant ELISA. The protocol:
Cell culture conditions. RAW 264.7 cells and murine spleen cells were cultured in RPMI 1640 supplemented with 10% FCS, 2 mM L-glutamine, 0.05 mM 2-mercaptoethanol, penicillin (100 U/ml) and streptomycin (100 U/ml) in 12-well tissue culture plates (Costar, Corning, N.Y.). Cells were incubated in media alone or media supplemented with ODN. Supernatants from triplicate cultures were harvested and stored at −70° C. before analysis for PG or cytokine concentration. Cells were subsequently harvested for either RNA or protein isolation. In some cultures, ODN-stimulated spleen cells were incubated in the presence of PGE2 (0.1 μM), piroxicam (16 μM), SC-58236 (0.125 μM), anti-PGE2 antibody 2B5 (6.7 μg/ml), or isotype antibody MOPC21 (6.7 μg/ml). For quantitative analysis of macrophage PG production, RAW 264.4 cells were cultured at 1×10^5 cells/ml in media or media with ODN (3 μg/ml). After 24 h of culture the supernatant was removed and cells were incubated in PBS supplemented with arachidonic acid (10 μM).
Cytokine quantification. IFN-γ detection was performed using a cytokine ELISA kit from PharMingen (San Diego, Calif.). Immulon-1B microtiter plates were obtained from Dynatech (Chantilly, Calif.). After incubation with peroxidase substrate (tetramethylbenzidine) the plates were read at 650 nm on a microplate reader (Cambridge Technology, Watertown, Mass.).
COX inhibitors enhance IFN-γ secretion induced by CpG DNA. CpG DNA is known to elicit strong Th1-like immune responses both in vitro and in vivo. Klinman D M et al. (1996) Proc Natl Acad Sci USA 93:2879-83. In contrast, PGE2, which is induced by CpG DNA, can inhibit Th1 responses. Betz M et al. (1991) J Immunol 146:108-13. Murine spleen cells were stimulated with CpG DNA in the presence of piroxicam, a non-selective COX inhibitor, or SC-58236, a selective inhibitor of COX-2, and quantified IFN-γ production. […] Neither COX inhibitor alone stimulated IFN-γ secretion.
Inhibition of PGE2 synthesis plays an important role in enhancing IFN-γ secretion. The blockade of the COX enzyme will inhibit synthesis of multiple PG (e.g., PGE2, PGD2 and dPGJ2), all of which potentially can inhibit Th1 immune responses. To assess the role of PGE2 in the modulation of IFN-γ secretion elicited by CpG ODN, a neutralizing antibody (2B5) specific for PGE2 was added into CpG DNA-stimulated spleen cell-cultures. […] The enhancement was similar in magnitude to that observed when COX inhibitors were added to the cultures (Table 3).

In another series the test system is YAC-1 target cells. In words: NK cytotoxicity assay, 4-h 51Cr-release against YAC-1 target cells. In kind it is cell-based, mouse. The conditions noted are these: for NK activity, Mouse Spleen Cells (LU/10^6): B cell-depleted C57BL/6 spleen cells, 18 h, IL-2 100 U/mL, ODN 1585 5 μg/mL, SC-58236 0.25 μg/mL, PGE2 0.1 μg/mL, 1 LU = 30% 51Cr release; for effect on NK lytic activity induced by CpG DNA: B cell-depleted murine spleen cells stimulated with ODN 1585. The protocol:
Cytotoxicity assay. Spleen cells from C57BL/6 mice were depleted of B cells using paramagnetic beads coated with goat anti-mouse Ig as previously described. Ballas Z K et al. (1990) J Immunol 145:1039-45; Ballas Z K et al. (1993) J Immunol 150:17-30. […] […] Cultures were harvested at 18 h and the cells were used as effectors in a standard 4-h ^51Cr-release assay against YAC-1 target cells labeled with Na^51CrO4 (Amersham Life Science, Arlington Heights, Ill.) as described previously. Ballas Z K et al. (1990) J Immunol 145:1039-45; Ballas Z K et al. (1993) J Immunol 150:17-30; Ballas Z K et al. (1990) J Allergy Clin Immunol 85:453-39. One lytic unit (LU) was defined as the number of the cells needed to exert 30% specific lysis.
It has previously been reported that certain CpG DNA sequences can elicit strong lytic activity in NK cells (Ballas Z K et al. (1996) J Immunol 157:1840-45), whereas exogenous PGE2 is known to inhibit the activity of NK cell killing (Kanar M C et al. (1988) J Clin Immunol 8:69-79; Young M R et al. (1986) J Natl Cancer Inst 77:425-29). B cell-depleted murine spleen cells were stimulated with the stimulatory ODN 1585 in the presence or absence of a COX inhibitor.

The next series relates to BALB/c mice. Briefly: Serum IFN-γ in vivo after COX inhibitor and ODN 1826 injection. The conditions noted are these: SC-58236 20 mg/kg i.p. 1 h before 30 μg ODN 1826, serum 5 h post ODN, FIG. 3. Details: species or system mouse. The protocol:
In vivo experiments. BALB/c mice were injected i.p. with 0.2 ml of diluent or SC-58236 (20 mg/kg). One hour later, mice were injected with 30 μg of ODN 1826 or PBS. Five hours later, the mice were anaesthetized with Avertin (Aldrich, Milwaukee, Wis.) and blood was obtained from the retro-orbital plexus. The blood was allowed to clot on ice for 1 h and centrifuged at 10,000 r.p.m. for 10 min. The serum was used for IFN-γ determination by ELISA (as described above).
COX inhibitors augment IFN-γ production in vivo. To determine whether COX inhibitors could also enhance the immune stimulatory effects of CpG-DNA in vivo, mice were treated with COX inhibitors (piroxicam or SC-58236) and subsequently injected with stimulatory ODN 1826. Serum IFN-γ levels were quantified 5 h post ODN injection.

Strand notation (5' to 3'): a small letter for the sugar, then the base; units joined by * are phosphorothioate-linked, units joined directly phosphodiester-linked; [ ] holds rarer units or linkages, { } end groups; capitals alone tell only the bases. d = 2'-deoxy (DNA)

Regarding “ODN 1982: non-stimulatory control ODN (dT*dC*dC*dA*dG*dG*dA*dC*dT*dT*dC*dT*dC*dT*dC*dA*dG*dG*dT*dT)”, in the series on COX-2 mRNA, the “increase in COX-2 mRNA” value was “no significant increase”. For the same molecule, in the series with COX-2 protein, the “COX-2 protein induction” value is “no induction”.

In the case of `CCCCC[C@H](O)/C=C/[C@H]1[C@H](O)CC(=O)[C@@H]1C/C=C\CCCC(=O)O` [PGE2, prostaglandin E2], in series [1], the “IFN-γ” value is 0 ± 4 pg/mL. Moreover, in the series with YAC-1 target cells, the “NK activity, Mouse Spleen Cells (LU/10^6)” value (from here on “NK activity”) is listed as 0.0 LU/10^6 and the “effect on NK lytic activity induced by CpG DNA” value is listed as “abolished the lytic activity”.

Take ODN 1826: in the series on COX-2 mRNA, the “COX-2 mRNA levels over the 24-h time period” value is on record as “remained elevated”, the “time to induction of COX-2 mRNA expression” value was not above 2 h and the “increase in COX-2 mRNA” value is on record as “effectively increased COX-2 mRNA”. The “COX-2 mRNA, 6 h level fold greater than 0 h” value in the series with COX-2 mRNA (6 h) was 21 fold. For the same molecule, the “COX-2 protein induction” value in the series with COX-2 protein is recorded as “marked induction”. Besides, the “IFN-γ” value in series [1] amounted to 1960 ± 247 pg/mL.

Consider “ggGGTCAACGTTGAgggggG (dG*dG*dGdGdTdCdAdAdCdGdTdTdGdAdG*dG*dG*dG*dG*dG) [ODN 1585, immunostimulatory CpG ODN]”, for which, in the series with YAC-1 target cells, the “NK activity” value was found to be 7.3 LU/10^6.

As for `NS(=O)(=O)c1ccc(-n2nc(C(F)(F)F)cc2-c2ccc(Cl)cc2)cc1` [SC-58236], the “IFN-γ” value in series [1] came to 0 ± 2 pg/mL. Moreover, the “enhancement of IFN-γ secretion from CpG DNA-stimulated spleen cells” value in series [1] (inhibitor added to CpG DNA-stimulated murine spleen cells) is listed as 2 fold. Further, in the series on YAC-1 target cells, the “NK activity” value is 0.0 LU/10^6 and the “effect on NK lytic activity induced by CpG DNA” value was “enhanced the NK activity”. Further, the “increase in serum IFN-γ above mice injected with ODN 1826 alone” value in the series with BALB/c mice is given as 4.6 fold.
